Experiments:
Leishmania donovani [1] = assay: Antileishmanial activity against Leishmania donovani promastigotes assessed as parasitic growth inhibition at 50 uM incubated for 3 days by resazurin dye based assay relative to control; type: functional; conditions: 72 h, time 3 day
Leishmania donovani [2] = assay: Antileishmanial activity against Leishmania donovani amastigotes infected in human THP-1 cells assessed as inhibition of intracellular parasite number incubated for 72 hrs by DAPI staining based assay; type: functional, organism-based; conditions: THP-1, 72 h
[3] = Cytotoxicity against human THP-1 cells; type: toxicity, cell-based
Leishmania donovani [4] = assay: Antileishmanial activity against Leishmania donovani amastigotes infected in human THP-1 cells assessed as inhibition of parasite infection incubated for 72 hrs by DAPI staining based assay; type: functional, organism-based; conditions: THP-1, 72 h
Leishmania donovani [5] = assay: Antileishmanial activity against Leishmania donovani promastigotes assessed as parasitic growth inhibition incubated for 3 days by resazurin dye based assay; type: functional, organism-based; conditions: 72 h
Leishmania donovani [6] = assay: Antileishmanial activity against Leishmania donovani promastigotes assessed as parasitic growth inhibition at 25 uM incubated for 3 days by resazurin dye based assay relative to control; type: functional; conditions: 72 h, time 3 day

Compound | inhibition at 50 µM (Leishmania donovani [1]) | IC50 (Leishmania donovani [2]) | CC50 [3] | IC50 (Leishmania donovani [4]) | IC50 (Leishmania donovani [5]) | inhibition at 25 µM (Leishmania donovani [6])
COc1ccc(/C=C2\Oc3cc(OCCCN4CCCC4)ccc3C2=O)cc1OC | 124% | 16.9 µM | 26.9 µM | 26.2 µM | 3.1 µM | 120%
COc1ccccc1/C=C1\Oc2cc(OCCCN3CCCC3)ccc2C1=O | 110% | 8.2 µM | 14.3 µM | 21.2 µM | 4.1 µM | 107%
CCN(CC)CCOc1ccc2c(c1)O/C(=C\c1ccccc1OC)C2=O | 115% | 9.9 µM | 17.2 µM | 13.3 µM | 5.3 µM | 110%
CCN(CC)CCOc1ccc2c(c1)O/C(=C\c1cccc(OC)c1)C2=O | 121% | > 100 µM | 39 µM | 27.4 µM | 8.6 µM | 115%
COc1cc(/C=C2\Oc3cc(OCCN4CCCC4)ccc3C2=O)cc(OC)c1OC | 133% | 15.7 µM | 26.2 µM | 27.3 µM | 3.1 µM | 126%
COc1ccc(/C=C2\Oc3cc(OCCN4CCCCC4)ccc3C2=O)cc1 | 99% | 31.5 µM | 40.7 µM | 34.8 µM | 4.3 µM | 104%
COc1cccc(/C=C2\Oc3cc(OCCN4CCOCC4)ccc3C2=O)c1 | 105% |  |  |  | 27 µM | 80%
COc1ccc(/C=C2\Oc3cc(OCCN4CCCCC4)ccc3C2=O)cc1OC | 127% | 25.5 µM | 27.4 µM | 29.7 µM | 2.5 µM | 122%
COc1ccc(/C=C2\Oc3cc(OCCCCCN4CCCCC4)ccc3C2=O)cc1OC | 124% | 17.1 µM | 26.1 µM | 24.1 µM | 2.9 µM | 115%
COc1ccc2c(c1)O/C(=C\c1ccc(O)c(O)c1)C2=O | 108% |  |  |  | 26.4 µM | 105%
CCCCCCCCCCCCCCCCCCOCC(COP(=O)([O-])OCC[N+](C)(C)C)OC (stereo unspecified) [EDELFOSINE] | 108% | 2 µM | 12.9 µM | 7.7 µM | 3.9 µM | 108%
COc1ccc(OC)c(/C=C2\Oc3cc(OCCN4CCCC4)ccc3C2=O)c1 | 116% | 4.6 µM | 10.5 µM | 11.1 µM | 4.1 µM | 115%
COc1ccccc1/C=C1\Oc2cc(OCCN3CCCC3)ccc2C1=O | 71% |  |  |  | > 100 µM | 69%
COc1ccc(/C=C2\Oc3cc(OCCN4CCCC4)ccc3C2=O)cc1 | 115% | 15.8 µM | 21.5 µM | 22.6 µM | 4.8 µM | 108%
COc1cccc(/C=C2\Oc3cc(OCCCN4CCCC4)ccc3C2=O)c1OC | 116% | > 100 µM | 33.5 µM | 26.4 µM | 5.4 µM | 109%
COc1ccc(OC)c(/C=C2\Oc3cc(OCCCN4CCCC4)ccc3C2=O)c1 | 103% | 4.4 µM | 6.6 µM | 6.3 µM | 3.7 µM | 103%
COc1cccc(/C=C2\Oc3cc(OCCN4CCCC4)ccc3C2=O)c1 | 117% | 22.9 µM | 28.9 µM | 26.7 µM | 4.8 µM | 112%
COc1cc(/C=C2\Oc3cc(OCCCN4CCCC4)ccc3C2=O)cc(OC)c1 | 102% | 14.3 µM | 15.3 µM | 14 µM | 2.8 µM | 104%
CCN(CC)CCCOc1ccc2c(c1)O/C(=C\c1cccc(OC)c1)C2=O | 118% | 14.5 µM | 19.3 µM | 17.1 µM | 4.6 µM | 114%
COc1ccc(/C=C2\Oc3cc(OCCCN4CCCCC4)ccc3C2=O)cc1OC | 125% | 22.3 µM | 28.4 µM | 29.5 µM | 2.6 µM | 119%
